ChEMBL document CHEMBL1777782, “Indole 5-carboxamide Thumb Pocket I inhibitors of HCV NS5B polymerase with nanomolar potency in cell-based subgenomic replicons (part 2): central amino acid linker and right-hand-side SAR studies” (Bioorg Med Chem Lett, 2011)
In brackets after ≈: the same amount, converted by molar mass.

What was measured:
[1] = Inhibition of HCV 1b NS5B RNA dependent RNA polymerase by scintillation proximity assay; design: species or system Hepacivirus hominis
[2] = Selectivity ratio for mammalian DNA-dependent RNA polymerase II to HCV 1b NS5B RNA dependent RNA polymerase
[3] = Selectivity ratio for polio virus RNA-dependent RNA polymerase to HCV 1b NS5B RNA dependent RNA polymerase
[4] = test system: Hepatitis C virus; assay: Antiviral activity against Hepatitis C virus genotype 1b infected in human Huh-7 cells assessed as inhibition of viral replication after 72 hrs; format: functional, organism-based, Hepacivirus hominis; settings: Huh-7, 72 h
[5] = Half life in human liver microsomes at 10 uM
[6] = physchem; settings: phosphate buffer, pH 7.2
[7] = Permeability across apical to basolateral side in human Caco2 cells; settings: Caco-2
[8] = Mean retention time in overnight-fasted Sprague-Dawley rat at 10, mg/kg, po administered by oral gavage; format: ADME, organism-based; settings: in vivo
[9] = Cmax in overnight-fasted Sprague-Dawley rat at 10, mg/kg, po administered by oral gavage; format: ADME, organism-based; settings: in vivo
[10] = AUC in overnight-fasted Sprague-Dawley rat at 10, mg/kg, po administered by oral gavage; format: ADME, organism-based; settings: plasma
[11] = Tmax in overnight-fasted Sprague-Dawley rat at 10, mg/kg, po administered by oral gavage; format: ADME, organism-based; settings: in vivo
[12] = Half life in rat liver microsomes at 10 uM; format: ADME, Microsome

Row | SMILES | IC50 [1] | Ratio [2] | Ratio [3] | EC50 [4] | half-life at 10 µM ([5]; liver microsomes) | solubility thermodynamic at 24 h [6] | Papp A→B [7] | MRT [8] | Cmax [9] | AUC [10] | Tmax [11] | half-life at 10 µM [12] | half-life at 10 µM ([5]; microsomes)
1 | Cc1c(C(=O)O)sc2ccc(NC(=O)C(C)(C)NC(=O)c3ccc4c(C5CCCCC5)c(-c5ccccn5)n(C)c4c3)cc12 | 35 nM | > 150 | > 150 | 46 nM | 34 min | 202 µg/mL (≈ 332 µM) | 0.8 ×10⁻⁶ cm/s |  |  |  |  |  | 
2 | Cn1c(C(=O)O)cc2cc(NC(=O)C(C)(C)NC(=O)c3ccc4c(C5CCCCC5)c(-c5ccccn5)n(C)c4c3)ccc21 | 75 nM | > 150 | > 150 | 143 nM | 36 min | 945 µg/mL (≈ 1600 µM) | 0.7 ×10⁻⁶ cm/s |  |  |  |  |  | 
3 | Cn1c(-c2ccccn2)c(C2CCCCC2)c2ccc(C(=O)N[C@@]3(C(=O)Nc4ccc(-c5cncnc5)cc4)CCNC3)cc21 | 64 nM | > 150 | > 150 | 130 nM | 64 min | 9 µg/mL (≈ 15 µM) | < 0.1 ×10⁻⁶ cm/s |  |  |  |  |  | 
4 | Cc1c(C(=O)O)sc2ccc(NC(=O)C3(NC(=O)c4ccc5c(C6CCCCC6)c(-c6ccccn6)n(C)c5c4)CCN(C)CC3)cc12 | 27 nM | > 150 | > 150 | 58 nM | 185 min | 1 µg/mL (≈ 1.51 µM) | 0.8 ×10⁻⁶ cm/s |  |  |  |  |  | 
5 | CC(=O)N1CCCC(NC(=O)c2ccc3c(C4CCCCC4)c(-c4ccccn4)n(C)c3c2)(C(=O)Nc2ccc(/C=C/C(=O)O)cc2)C1 (racemic) | 230 nM | > 150 | > 150 | 230 nM | 256 min | 24 µg/mL (≈ 37 µM) | 5.5 ×10⁻⁶ cm/s |  |  |  |  |  | 
6 | Cn1c(C(=O)O)cc2cc(NC(=O)[C@]3(NC(=O)c4ccc5c(C6CCCCC6)c(-c6ccccn6)n(C)c5c4)CCCNC3)ccc21 | 44 nM | > 150 | > 150 | 245 nM | 28 min | 14 µg/mL (≈ 22.1 µM) | < 0.1 ×10⁻⁶ cm/s |  |  |  |  |  | 
7 | Cn1c(-c2ccccn2)c(C2CCCCC2)c2ccc(C(=O)NC(C)(C)C(=O)Nc3ccc(CCC(=O)O)cc3)cc21 | 132 nM | > 150 | > 150 | 267 nM | 63 min | 244 µg/mL (≈ 431 µM) | 12.7 ×10⁻⁶ cm/s | 102 min | 630 nM | 0.81 µM·h | 30 min |  | 
8 | Cn1c(-c2ccccn2)c(C2CCCCC2)c2ccc(C(=O)NC3(C(=O)Nc4ccc(C(=O)O)cc4)CCC3)cc21 | 93 nM | > 150 | > 150 | 110 nM |  | 336 µg/mL (≈ 610 µM) | 9.7 ×10⁻⁶ cm/s |  | 500 nM |  |  | 9 min | 21 min
9 | Cn1c(-c2ccccn2)c(C2CCCCC2)c2ccc(C(=O)NC3(C(=O)Nc4ccc(/C=C/C(=O)O)cc4)CCOCC3)cc21 | 68 nM | > 150 | > 150 | 170 nM | 41 min | 15 µg/mL (≈ 24.7 µM) | 5.7 ×10⁻⁶ cm/s |  |  |  |  |  | 
10 | Cn1c(-c2ccccn2)c(C2CCCCC2)c2ccc(C(=O)NC(C)(C)C(=O)Nc3ccc(-c4ccc(C(=O)O)o4)cc3)cc21 | 152 nM | > 150 | > 150 | 145 nM | 43 min | > 564 µg/mL | 0.2 ×10⁻⁶ cm/s |  |  |  |  |  | 
11 | Cn1c(-c2ccccn2)c(C2CCCCC2)c2ccc(C(=O)N[C@]3(C(=O)Nc4ccc(/C=C/C(=O)O)cc4)CCNC3)cc21 | 55 nM | > 150 | > 150 | 194 nM | 191 min | 19 µg/mL (≈ 32.1 µM) | 0.1 ×10⁻⁶ cm/s |  |  |  |  |  | 
12 | Cn1c(-c2ccccn2)c(C2CCCCC2)c2ccc(C(=O)N[C@@]3(C(=O)Nc4ccc(/C=C/C(=O)O)cc4)CCNC3)cc21 | 23 nM | > 150 | > 150 | 83 nM | > 300 min | 10 µg/mL (≈ 16.9 µM) | 0.5 ×10⁻⁶ cm/s |  |  |  |  |  | 
13 | Cn1c(-c2ccccn2)c(C2CCCCC2)c2ccc(C(=O)NC(C)(C)C(=O)Nc3ccc(-c4nc(C(=O)O)cs4)cc3)cc21 | 154 nM | > 150 | > 150 | 420 nM | 55 min | 662 µg/mL (≈ 1060 µM) | < 0.1 ×10⁻⁶ cm/s |  |  |  |  |  | 
14 | CN1CC[C@@](NC(=O)c2ccc3c(C4CCCCC4)c(-c4ccccn4)n(C)c3c2)(C(=O)Nc2ccc(/C=C/C(=O)O)cc2)C1 | 21 nM | > 150 | > 150 | 34 nM |  | 15 µg/mL (≈ 24.8 µM) | 8.1 ×10⁻⁶ cm/s | 228 min | 320 nM | 0.81 µM·h | 30 min | 18 min | 456 min
15 | Cc1c(C(=O)O)sc2ccc(NC(=O)C3(NC(=O)c4ccc5c(C6CCCCC6)c(-c6ccccn6)n(C)c5c4)CCC3)cc12 | 122 nM | > 150 | > 150 | 68 nM | 79 min | 112 µg/mL (≈ 180 µM) | 0.6 ×10⁻⁶ cm/s |  |  |  |  |  | 
16 | Cn1c(-c2ccccn2)c(C2CCCCC2)c2ccc(C(=O)NC(C)(C)C(=O)Nc3ccc(NC(=O)C(N)=O)cc3)cc21 | 124 nM | > 150 | > 150 | 139 nM | 25 min | 1 µg/mL (≈ 1.72 µM) | 12.9 ×10⁻⁶ cm/s |  |  |  |  |  | 
17 | CN1CC[C@](NC(=O)c2ccc3c(C4CCCCC4)c(-c4ccccn4)n(C)c3c2)(C(=O)Nc2ccc(/C=C/C(=O)O)cc2)C1 | 66 nM | > 150 | > 150 | 78 nM |  | 20 µg/mL (≈ 33 µM) | 7.8 ×10⁻⁶ cm/s |  |  |  |  |  | 46 min
18 | Cn1c(-c2ccccn2)c(C2CCCCC2)c2ccc(C(=O)NC3(C(=O)Nc4ccc(/C=C/C(=O)O)cc4)CCC3)cc21 | 52 nM | > 150 | > 150 | 43 nM |  | 6 µg/mL (≈ 10.4 µM) | 39 ×10⁻⁶ cm/s |  | 290 nM | 0.35 µM·h | 30 min | 17 min | 50 min
19 | CN1CCC(NC(=O)c2ccc3c(C4CCCCC4)c(-c4ccccn4)n(C)c3c2)(C(=O)Nc2ccc(/C=C/C(=O)O)cc2)CC1 | 10 nM | > 150 | > 150 | 60 nM | 148 min | 22 µg/mL (≈ 35.5 µM) | 0.6 ×10⁻⁶ cm/s |  | < 100 nM |  |  | 34 min | 
20 | Cn1c(-c2ccccn2)c(C2CCCCC2)c2ccc(C(=O)NC(C)(C)C(=O)Nc3ccc(/C=C/C(=O)O)cc3)cc21 |  |  |  |  |  |  |  |  |  |  | 15 min |  | 
21 | Cn1c(-c2ccccn2)c(C2CCCCC2)c2ccc(C(=O)NC(C)(C)C(=O)Nc3ccc4sc(C(=O)O)cc4c3)cc21 | 23 nM | > 150 | > 150 | 88 nM | 49 min | 468 µg/mL (≈ 787 µM) | 0.4 ×10⁻⁶ cm/s |  |  |  |  |  | 
22 | Cn1c(-c2ccccn2)c(C2CCCCC2)c2ccc(C(=O)N[C@@]3(C(=O)Nc4ccc(/C=C/C(=O)O)cc4)CCCNC3)cc21 | 11 nM | > 150 | > 150 | 20 nM | 84 min | 22 µg/mL (≈ 36.3 µM) | 0.6 ×10⁻⁶ cm/s |  | < 100 nM |  |  | 17 min | 
